Measured values from article PMC7313537 (PLoS ONE, 2020).
Where two headings read alike, the source gives them in different places.

What was measured:
MINK = MINK (Homo sapiens, UniProt Q8N4C8); experiment: Enzyme selectivity panel; assay type: biochemical; conditions: 1 mM ATP
Experimental: (§4) The kinase assays were carried out at room temperature in HEPES 50 mM, pH 7.0, NaN3 0.02%, BSA 0.01%, Orthovanadate 0.1 mM, DTT 1 mM, MgCl2 10 mM in a final volume of 10 µL. Test compounds were transferred to the plate wells by ECHO liquid handler (Labcyte, San Jose, CA) with 0.5% dimethyl sulfoxide (DMSO) in the final assay. Peptide/kinase mixtures were diluted in the appropriate enzymatic buffer and 5µL of the mixture was added to a 384-well small volume black plate. Reactions were initiated by the addition of 5 µL ATP in reaction buffer, the final reaction mixture consisted of 500 nM peptide substrate, 1 mM ATP, and appropriate amount of specific kinase. […] The plates were then sealed and centrifuged at 1800 rpm for 2 minutes. […] Half maximal inhibitory concentration (IC50) determination was performed by fitting the curve of percent control activity versus the log of the compound concentration using the GraphPad Prism 6.0 software.

KMS12BM = experiment: Cell viability assay (CellTiter-Glo); assay type: cell-based; conditions: Homo sapiens, KMS-12-BM; Myeloma; lacking FGFR alterations
DDR2 = molecular target: T1, DDR2 (Homo sapiens, UniProt Q16832); experiment: Enzyme selectivity panel; assay type: biochemical; conditions: 1 mM ATP
T1 construct: purchased In-house HTRF panel (56 kinases) and PerkinElmer (161-kinase panel)
Experimental: as §4

AURKA = AURKA (Homo sapiens, UniProt O14965); experiment: Enzyme selectivity panel; assay type: biochemical; conditions: 1 mM ATP
Experimental: as §4

SGK1 = molecular target: T2, SGK1 (Homo sapiens, UniProt O00141); experiment: Enzyme selectivity panel; assay type: biochemical; conditions: 1 mM ATP
T2 construct: purchased In-house HTRF panel (56 kinases) and PerkinElmer (161-kinase panel)
Experimental: as §4

A549 = experiment: Cell viability assay (CellTiter-Glo); assay type: cell-based; conditions: Homo sapiens, Lung cancer, lacking FGFR alterations
PIM2 = molecular target: T3, PIM2 (Homo sapiens, UniProt Q9P1W9); experiment: Enzyme selectivity panel; assay type: biochemical; conditions: 1 mM ATP
T3 construct: purchased In-house HTRF panel (56 kinases) and PerkinElmer (161-kinase panel)
Experimental: as §4

AXL = molecular target: T4, AXL (Homo sapiens, UniProt P30530); experiment: Enzyme selectivity panel; assay type: biochemical; conditions: 1 mM ATP
T4 construct: purchased In-house HTRF panel (56 kinases) and PerkinElmer (161-kinase panel)
Experimental: as §4

[1] = test system: FGFR3 phosphorylation in RT-4 cells; experiment: Proximity ligation assay; assay type: cell-based; conditions: 100 nM, 1 hour
From the text: S4 Figure. FGFR3 Phosphorylation Detected by Proximity Ligation Assay. […] Primary antibodies were rabbit anti-FGFR3 (Abcam, Cambridge, UK, #137084) at a 1:250 dilution and mouse 4G10 platinum anti-phosphotyrosine monoclonal cocktail IgG2b (Millipore, Burlington, MA, #05-1050) at a 1:250 dilution. Secondary probes were Duolink In Situ PLA® Probe Anti-Rabbit PLUS, affinity purified donkey anti-rabbit IgG (H+L) and Duolink In Situ PLA® Probe Anti-Mouse MINUS, Affinity purified donkey anti-mouse IgG (H+L). Detection was via Duolink In Situ Detection Reagents Red.

HIPK3 = HIPK3 (Homo sapiens, UniProt Q9H422); experiment: Enzyme selectivity panel; assay type: biochemical; conditions: 1 mM ATP
Experimental: as §4

UMUC3 = experiment: Cell viability assay (CellTiter-Glo); assay type: cell-based; conditions: Homo sapiens, Bladder, lacking FGFR alterations
Pharmacokinetic analyses [2] = assay type: in vivo, cynomolgus monkeys; conditions: male monkey
Experimental: (§1) The i.v. formulation in dogs and monkeys was 5% DMAC and 20% sulfobutyl ether β-cyclodextrin in saline. The oral formulation in all species was 5% DMAC in 0.5% methylcellulose aqueous solution. For rats, blood samples were collected at predose, 5 (i.v. dosing only), 15, and 30 minutes, and 1, 2, 4, 6, 8, and 24 hours. For dogs, blood samples were collected at predose, 2.5 and 5 (i.v. dosing only), 15, and 30 minutes, and 1, 2, 3, 4, 6, 8, 12, and 24 hours postdose. For monkeys, blood samples were collected at predose, 5 and 10 (i.v. dosing only), 15, and 30 minutes, and 1, 2, 3, 4, 6, 8, 12, 16, and 24 hours postdose. Collected blood samples were processed to extract plasma by centrifugation and stored at −20 °C until analysis.
(§2) The plasma was protein precipitated and the diluted supernatant was analyzed using LC/MS/MS. A standard curve was prepared in plasma from 1 to 5,000 nM and processed in the same manner as the samples. The pharmacokinetic parameters were determined using WinNonLin 6.3.

RPS6KB1 = RPS6KB1 (Homo sapiens, UniProt P23443); experiment: Enzyme selectivity panel; assay type: biochemical; conditions: 1 mM ATP
Experimental: as §4

TGFBR1 = TGFBR1 (Homo sapiens, UniProt P36897); experiment: Enzyme selectivity panel; assay type: biochemical; conditions: 1 mM ATP
Experimental: as §4

PHKG2 = molecular target: T5, PHKG2 (Homo sapiens, UniProt P15735); experiment: Enzyme selectivity panel; assay type: biochemical; conditions: 1 mM ATP
T5 construct: purchased In-house HTRF panel (56 kinases) and PerkinElmer (161-kinase panel)
Experimental: as §4

Caco-2 cell monolayers = experiment: Caco-2 permeability; assay type: in vitro ADME; conditions: A–B at 50 μM
Experimental: (§3) The Caco-2 monolayers were incubated at 37°C, with ambient humidity, and CO2 for the duration of the transport assay. […] The apical volume was 0.2 mL and the basolateral volume was 0.6 mL. The incubation period was 120 minutes. At the end of the incubation period, 0.1 mL of sample was removed from the receiver side and an equal volume of acetonitrile was added for protein precipitation. After centrifugation, the supernatants were collected for analysis. Nadolol and metoprolol were included as low and high permeability comparators, respectively. Trans-epithelial electrical resistance was measured to ensure the integrity of the cell monolayers. Caco-2 cell monolayers with trans-epithelial electrical resistance values ≥300 Ω•cm2 were used for transport experiments.

Caco-2 permeability = assay type: in vitro ADME; conditions: human, Caco-2; A–B at 50 μM
Experimental: as §3

KG1a (AML) = experiment: Cell viability assay (CellTiter-Glo); assay type: cell-based; conditions: Homo sapiens, KG-1a; FGFR1OP2-FGFR1 fusion; 72 hours; read-out: Mean GI50 ± S.D.
PIM1 = molecular target: T6, PIM1 (Homo sapiens, UniProt P11309); experiment: Enzyme selectivity panel; assay type: biochemical; conditions: 1 mM ATP
T6 construct: purchased In-house HTRF panel (56 kinases) and PerkinElmer (161-kinase panel)
Experimental: as §4

Pharmacokinetic analyses [3] = assay type: in vivo, Sprague Dawley rats; conditions: male rat
Experimental: as §1, with “The i.v. formulation in rats was 5% dimethylacetamide (DMAC) and 25% sulfobutyl ether β-cyclodextrin in acidified saline (pH 3). The i.v.” for “The i.v.”
as §2

PRKAA1 = PRKAA1 (Homo sapiens, UniProt Q13131); experiment: Enzyme selectivity panel; assay type: biochemical; conditions: 1 mM ATP
Experimental: as §4

[4] = intravenous 1 mg/kg, % of hepatic blood flow
[5] = Sprague Dawley, plasma, oral 2 mg/kg

T2 sequence (O00141 whole entry, species assumed): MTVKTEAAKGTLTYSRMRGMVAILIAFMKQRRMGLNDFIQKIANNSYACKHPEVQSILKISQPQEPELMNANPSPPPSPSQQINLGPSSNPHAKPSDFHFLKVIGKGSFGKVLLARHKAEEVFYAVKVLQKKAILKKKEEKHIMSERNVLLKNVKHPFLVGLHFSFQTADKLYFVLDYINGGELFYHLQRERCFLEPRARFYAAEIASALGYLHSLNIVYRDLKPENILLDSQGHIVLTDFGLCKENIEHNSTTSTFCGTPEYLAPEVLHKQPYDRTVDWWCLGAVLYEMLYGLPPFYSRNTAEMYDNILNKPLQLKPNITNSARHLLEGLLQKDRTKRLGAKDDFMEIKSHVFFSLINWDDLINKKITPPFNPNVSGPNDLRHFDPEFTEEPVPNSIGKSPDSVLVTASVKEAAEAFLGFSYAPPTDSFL
MINK, sequence (Q8N4C8 whole entry): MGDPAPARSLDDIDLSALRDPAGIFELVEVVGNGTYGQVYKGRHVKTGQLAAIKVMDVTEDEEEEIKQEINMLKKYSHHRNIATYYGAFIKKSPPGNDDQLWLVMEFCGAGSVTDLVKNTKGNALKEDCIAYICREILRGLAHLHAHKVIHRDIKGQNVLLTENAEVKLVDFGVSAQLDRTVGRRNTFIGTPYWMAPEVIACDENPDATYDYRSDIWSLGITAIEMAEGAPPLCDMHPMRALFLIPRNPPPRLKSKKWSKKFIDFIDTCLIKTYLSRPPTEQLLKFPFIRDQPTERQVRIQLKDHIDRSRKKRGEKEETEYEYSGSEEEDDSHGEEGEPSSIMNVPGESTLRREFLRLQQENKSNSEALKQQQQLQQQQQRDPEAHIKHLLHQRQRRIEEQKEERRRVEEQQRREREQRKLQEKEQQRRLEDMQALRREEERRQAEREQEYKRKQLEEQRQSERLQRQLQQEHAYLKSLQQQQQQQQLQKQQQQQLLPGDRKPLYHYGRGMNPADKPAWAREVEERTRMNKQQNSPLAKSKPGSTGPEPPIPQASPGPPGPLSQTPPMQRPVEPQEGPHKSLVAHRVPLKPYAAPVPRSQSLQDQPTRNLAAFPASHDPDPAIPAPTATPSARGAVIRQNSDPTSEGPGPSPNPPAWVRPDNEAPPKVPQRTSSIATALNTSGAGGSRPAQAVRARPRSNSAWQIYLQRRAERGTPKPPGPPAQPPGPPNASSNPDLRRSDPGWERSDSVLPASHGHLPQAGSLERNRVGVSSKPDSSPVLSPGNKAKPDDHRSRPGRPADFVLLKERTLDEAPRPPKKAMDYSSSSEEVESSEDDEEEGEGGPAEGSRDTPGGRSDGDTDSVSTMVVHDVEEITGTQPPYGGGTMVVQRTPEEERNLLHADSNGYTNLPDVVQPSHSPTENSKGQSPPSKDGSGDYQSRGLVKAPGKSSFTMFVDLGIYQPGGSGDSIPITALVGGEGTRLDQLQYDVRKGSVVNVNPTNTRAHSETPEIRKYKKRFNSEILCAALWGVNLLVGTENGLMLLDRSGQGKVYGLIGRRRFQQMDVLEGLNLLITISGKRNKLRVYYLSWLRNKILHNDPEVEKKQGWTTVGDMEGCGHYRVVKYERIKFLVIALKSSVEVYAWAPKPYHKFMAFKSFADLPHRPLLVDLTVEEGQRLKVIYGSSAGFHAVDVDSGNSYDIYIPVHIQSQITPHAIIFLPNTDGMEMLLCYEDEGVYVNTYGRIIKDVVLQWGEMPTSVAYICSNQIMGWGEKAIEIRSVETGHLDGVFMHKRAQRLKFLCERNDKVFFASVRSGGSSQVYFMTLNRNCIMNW
AURKA, sequence (O14965 whole entry, species assumed): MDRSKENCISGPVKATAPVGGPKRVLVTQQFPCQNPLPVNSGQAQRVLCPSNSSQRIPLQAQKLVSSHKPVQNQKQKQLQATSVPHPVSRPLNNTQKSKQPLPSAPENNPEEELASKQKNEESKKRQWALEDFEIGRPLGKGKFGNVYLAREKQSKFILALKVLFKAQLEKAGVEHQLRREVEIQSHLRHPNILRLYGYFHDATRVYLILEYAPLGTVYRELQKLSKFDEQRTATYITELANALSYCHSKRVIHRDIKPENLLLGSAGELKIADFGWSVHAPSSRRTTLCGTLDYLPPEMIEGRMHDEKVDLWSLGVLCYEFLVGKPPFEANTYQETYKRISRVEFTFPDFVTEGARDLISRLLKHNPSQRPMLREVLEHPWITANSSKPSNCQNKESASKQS
T1 sequence (Q16832 22-855, species assumed): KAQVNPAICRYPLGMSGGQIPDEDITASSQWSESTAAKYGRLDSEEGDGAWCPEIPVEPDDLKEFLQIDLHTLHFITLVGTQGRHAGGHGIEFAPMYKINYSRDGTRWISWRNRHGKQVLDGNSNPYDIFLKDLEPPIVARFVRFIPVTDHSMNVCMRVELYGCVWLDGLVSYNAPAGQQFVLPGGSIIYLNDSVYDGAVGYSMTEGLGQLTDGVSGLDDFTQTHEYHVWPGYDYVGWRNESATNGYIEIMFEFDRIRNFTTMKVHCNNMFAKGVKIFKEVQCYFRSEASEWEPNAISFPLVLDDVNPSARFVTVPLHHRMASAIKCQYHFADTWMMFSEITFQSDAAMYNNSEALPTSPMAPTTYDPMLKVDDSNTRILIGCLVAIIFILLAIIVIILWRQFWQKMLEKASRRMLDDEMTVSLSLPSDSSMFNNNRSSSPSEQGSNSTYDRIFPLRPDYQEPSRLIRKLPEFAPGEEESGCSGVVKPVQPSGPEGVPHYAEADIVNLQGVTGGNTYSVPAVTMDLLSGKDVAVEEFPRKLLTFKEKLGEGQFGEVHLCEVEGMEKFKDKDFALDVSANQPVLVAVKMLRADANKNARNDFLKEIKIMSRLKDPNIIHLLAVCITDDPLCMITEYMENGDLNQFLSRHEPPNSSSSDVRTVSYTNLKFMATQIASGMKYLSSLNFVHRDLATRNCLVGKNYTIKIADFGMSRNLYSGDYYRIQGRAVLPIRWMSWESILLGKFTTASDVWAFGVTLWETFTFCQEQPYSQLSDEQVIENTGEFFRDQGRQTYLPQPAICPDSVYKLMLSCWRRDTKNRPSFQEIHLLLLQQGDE
TGFBR1, sequence (P36897 34-503, species assumed): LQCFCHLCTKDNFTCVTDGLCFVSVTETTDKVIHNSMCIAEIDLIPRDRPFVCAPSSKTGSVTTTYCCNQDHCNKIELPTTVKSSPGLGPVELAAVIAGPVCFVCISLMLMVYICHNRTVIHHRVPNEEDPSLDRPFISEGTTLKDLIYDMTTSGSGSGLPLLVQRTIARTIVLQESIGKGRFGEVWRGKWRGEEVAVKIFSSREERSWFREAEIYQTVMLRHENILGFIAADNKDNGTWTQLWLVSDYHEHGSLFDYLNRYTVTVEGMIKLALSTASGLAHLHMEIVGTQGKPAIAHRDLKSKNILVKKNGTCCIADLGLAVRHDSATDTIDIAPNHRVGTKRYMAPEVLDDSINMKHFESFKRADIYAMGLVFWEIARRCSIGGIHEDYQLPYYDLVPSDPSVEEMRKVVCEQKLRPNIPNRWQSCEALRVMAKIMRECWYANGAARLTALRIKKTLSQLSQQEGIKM
T3 sequence (Q9P1W9 whole entry, species assumed): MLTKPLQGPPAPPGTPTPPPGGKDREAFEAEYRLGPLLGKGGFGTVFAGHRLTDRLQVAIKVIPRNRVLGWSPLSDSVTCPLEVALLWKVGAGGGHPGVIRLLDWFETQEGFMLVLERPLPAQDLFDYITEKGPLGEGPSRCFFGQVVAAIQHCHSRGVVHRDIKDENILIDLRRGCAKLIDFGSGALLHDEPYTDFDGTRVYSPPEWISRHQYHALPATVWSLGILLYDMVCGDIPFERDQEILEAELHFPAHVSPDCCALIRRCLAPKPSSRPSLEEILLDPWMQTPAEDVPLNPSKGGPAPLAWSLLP
PRKAA1, sequence (Q13131 whole entry, species assumed): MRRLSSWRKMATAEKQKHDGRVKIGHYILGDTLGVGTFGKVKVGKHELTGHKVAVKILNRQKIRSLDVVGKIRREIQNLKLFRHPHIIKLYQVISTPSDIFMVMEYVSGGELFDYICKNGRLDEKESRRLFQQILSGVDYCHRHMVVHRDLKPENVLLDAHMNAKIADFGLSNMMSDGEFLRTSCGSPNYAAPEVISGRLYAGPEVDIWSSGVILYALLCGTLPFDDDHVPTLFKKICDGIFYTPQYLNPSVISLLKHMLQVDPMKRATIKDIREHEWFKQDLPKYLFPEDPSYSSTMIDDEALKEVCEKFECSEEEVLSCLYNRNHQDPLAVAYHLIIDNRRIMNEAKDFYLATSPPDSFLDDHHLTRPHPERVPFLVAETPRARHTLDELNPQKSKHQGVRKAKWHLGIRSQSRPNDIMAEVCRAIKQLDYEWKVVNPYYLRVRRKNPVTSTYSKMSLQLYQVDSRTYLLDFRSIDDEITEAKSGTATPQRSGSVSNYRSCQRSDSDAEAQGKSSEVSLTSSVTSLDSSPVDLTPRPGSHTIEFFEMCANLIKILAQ
PRKAA1, sequence (Q9Y478 whole entry partner, species assumed): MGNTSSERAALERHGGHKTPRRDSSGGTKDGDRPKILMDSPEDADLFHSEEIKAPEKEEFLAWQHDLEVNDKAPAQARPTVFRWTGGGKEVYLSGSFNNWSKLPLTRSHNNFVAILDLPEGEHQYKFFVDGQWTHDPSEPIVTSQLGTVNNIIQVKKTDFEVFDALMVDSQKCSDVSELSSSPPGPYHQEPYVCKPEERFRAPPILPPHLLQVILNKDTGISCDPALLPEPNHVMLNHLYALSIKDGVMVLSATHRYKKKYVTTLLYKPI
PRKAA1, sequence (P54619 whole entry partner, species assumed): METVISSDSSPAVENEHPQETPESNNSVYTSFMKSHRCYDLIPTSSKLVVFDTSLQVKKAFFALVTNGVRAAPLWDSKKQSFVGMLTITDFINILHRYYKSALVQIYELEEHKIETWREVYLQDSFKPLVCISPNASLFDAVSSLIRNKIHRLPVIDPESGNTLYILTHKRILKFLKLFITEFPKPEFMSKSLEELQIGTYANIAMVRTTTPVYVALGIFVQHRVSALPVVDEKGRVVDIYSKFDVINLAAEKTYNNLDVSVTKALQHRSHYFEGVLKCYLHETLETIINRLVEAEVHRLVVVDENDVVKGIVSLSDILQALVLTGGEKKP

For `CCN1C(=O)N(c2c(F)c(OC)cc(OC)c2F)Cc2cnc3[nH]c(CN4CCOCC4)cc3c21` [INCB054828, pemigatinib], the IC50 (MINK) was over 10 µM, the GI50 (KMS12BM) was 2890 nM and the IC50 (DDR2) was over 10 µM. It also gave an IC50 (AURKA) of over 10 µM, an IC50 (SGK1) of over 10 µM and a GI50 (A549) of over 5 µM. For the same molecule, the IC50 (PIM2) was over 10 µM, the IC50 (AXL) was over 10 µM and the FGFR3 phosphorylation [1] was “a decrease was detected”. For the same molecule, the IC50 (HIPK3) was over 10 µM, the GI50 (UMUC3) was over 5 µM and the clearance (Pharmacokinetic analyses [2]; cynomolgus monkey, plasma, intravenous 1 mg/kg) was 3.3 mL/min/kg. For the same molecule, the Vd (Pharmacokinetic analyses [2]; cynomolgus monkey, plasma, intravenous 1 mg/kg, read-out: Vss) was 0.584 L/kg, the half-life (Pharmacokinetic analyses [2]; cynomolgus monkey, plasma, intravenous 1 mg/kg, read-out: t½ (converted)) was 618 min and the bioavailability (Pharmacokinetic analyses [2]; cynomolgus monkey, plasma, oral 2 mg/kg) was 29%. For the same molecule, the “Hepatic ER” value (Pharmacokinetic analyses [2]; [4]) was 8%, the AUC (Pharmacokinetic analyses [2]; oral 2 mg/kg) was 6.19 µM·h and the IC50 (RPS6KB1) was over 10 µM. For the same molecule, the IC50 (TGFBR1) was over 10 µM, the IC50 (PHKG2) was over 10 µM and the “Caco-2 Papp” value (Caco-2 cell monolayers) was “moderate to high permeability”. The Papp at 120 min, 50 μM (Caco-2 permeability) was 11 ×10⁻⁶ cm/s, the GI50 (KG1a (AML)) was 3 ± 1 nM and the IC50 (PIM1) was over 10 µM. For the same molecule, the clearance (Pharmacokinetic analyses [3]; Sprague Dawley, plasma, intravenous 1 mg/kg) was 17.2 mL/min/kg, the Vd (Pharmacokinetic analyses [3]; Sprague Dawley, plasma, intravenous 1 mg/kg, read-out: Vss) was 1.85 L/kg and the half-life (Pharmacokinetic analyses [3]; Sprague Dawley, plasma, intravenous 1 mg/kg, read-out: t½ (converted)) was 240 min. The Cmax (Pharmacokinetic analyses [3]; [5]) was 2260 nM, the bioavailability (Pharmacokinetic analyses [3]; [5]) was over 100% and the “Hepatic ER” value (Pharmacokinetic analyses [3]; [4]) was 31%. For the same molecule, the “%F” value (Pharmacokinetic analyses [3]; oral 2 mg/kg) was “complete”, the AUC (Pharmacokinetic analyses [3]; oral 2 mg/kg) was 7.67 µM·h and the IC50 (PRKAA1) was over 10 µM.
